Experimental data published in patent publication US11180504B2 (ORCHID PHARMA LTD., priority 2016, dated 2021).
≈ marks a conversion by molar mass, not a printed value.

What was measured:
[1] = test system: methicillin-sensitive Staphylococcus aureus; assay: MIC by broth micro-dilution (CLSI), methicillin-sensitive S. aureus; assay type: cell-based; conditions: Staphylococcus aureus, ATCC 29213 / MSSA, MSSA S. aureus ATCC29213; read-out: MIC
[2] = test system: carbapenem sensitive Escherichia coli; assay: MIC by broth micro-dilution (CLSI), carbapenem sensitive E. coli; assay type: cell-based; conditions: Escherichia coli, ATCC25922, ESBL −ve E. coli ATCC25922; read-out: MIC
[3] = test system: extended spectrum β lactamase (ESBL) SHV18 producing Klebsiella pneumoniae; assay: MIC by broth micro-dilution (CLSI), ESBL SHV18 producing K. pneumoniae; assay type: cell-based; conditions: Klebsiella pneumoniae, ATCC700603, 22 h, ESBL +ve (SHV-18) K. pneumoniae ATCC700603; read-out: MIC
[4] = test system: carbapenemase producing K. pneumoniae; assay: MIC by broth micro-dilution (CLSI), carbapenemase producing K. pneumoniae; assay type: cell-based, Klebsiella pneumoniae; conditions: Klebsiella pneumoniae, ATCCBAA1705, KPC-2 K. pneumoniae ATCC BAA-1705; read-out: MIC
[5] = test system: carbapenem sensitive Pseudomonas aeruginosa; assay: MIC by broth micro-dilution (CLSI), carbapenem sensitive P. aeruginosa; assay type: cell-based; conditions: Pseudomonas aeruginosa, ATCC27853, Meropenem susceptible P. aeruginosa ATCC27853; read-out: MIC

SMILES | MIC [1] | MIC [2] | MIC [3] | MIC [4] | MIC [5]
C[C@@H](NC(=O)CO)[C@H]1C(=O)N2C(C(=O)O)=C(S[C@@H]3CN[C@H](C(=O)N(C)C)C3)[C@H](C)[C@H]12 [Example 60] | 32 µg/mL (≈ 72.6 µM) | 16 µg/mL (≈ 36.3 µM) | 32 µg/mL (≈ 72.6 µM) | 64 µg/mL (≈ 145 µM) | > 128 µg/mL
C[C@@H](NC(=O)C(C)(F)F)[C@H]1C(=O)N2C(C(=O)O)=C(S[C@@H]3CN[C@H](C(=O)N(C)C)C3)[C@H](C)[C@H]12 [Example 61] | 1 µg/mL (≈ 2.11 µM) | 1 µg/mL (≈ 2.11 µM) | 16 µg/mL (≈ 33.7 µM) | 16 µg/mL (≈ 33.7 µM) | > 128 µg/mL
C[C@@H](NC(=O)CNS(C)(=O)=O)[C@H]1C(=O)N2C(C(=O)O)=C(S[C@@H]3CN[C@H](C(=O)N(C)C)C3)[C@H](C)[C@H]12 [Example 70] | 16 µg/mL (≈ 30.9 µM) | 4 µg/mL (≈ 7.73 µM) | 8 µg/mL (≈ 15.5 µM) | 16 µg/mL (≈ 30.9 µM) | > 128 µg/mL
C[C@@H](NC(=O)[C@H](N)Cc1ccccc1)[C@H]1C(=O)N2C(C(=O)O)=C(S[C@@H]3CN[C@H](C(=O)N(C)C)C3)[C@H](C)[C@H]12 [Example 72] | 32 µg/mL (≈ 60.4 µM) | 32 µg/mL (≈ 60.4 µM) | > 128 µg/mL | > 128 µg/mL | > 128 µg/mL
CNC(=O)C(=O)N[C@H](C)[C@H]1C(=O)N2C(C(=O)O)=C(S[C@@H]3CN[C@H](C(=O)N(C)C)C3)[C@H](C)[C@H]12 [Example 75] | 4 µg/mL (≈ 8.56 µM) | 1 µg/mL (≈ 2.14 µM) | 8 µg/mL (≈ 17.1 µM) | 16 µg/mL (≈ 34.2 µM) | > 128 µg/mL
C[C@@H](NC(=O)C(F)F)[C@H]1C(=O)N2C(C(=O)O)=C(S[C@@H]3CN[C@H](C(=O)N4CCC(F)(F)CC4)C3)[C@H](C)[C@H]12 [Example 76] | 2 µg/mL (≈ 3.73 µM) | 1 µg/mL (≈ 1.86 µM) | 8 µg/mL (≈ 14.9 µM) | 8 µg/mL (≈ 14.9 µM) | > 128 µg/mL

The next lines start with the values.

MIC [1] | MIC [2] | MIC [3] | MIC [4] | MIC [5] | SMILES
32 µg/mL (≈ 70.6 µM) | 2 µg/mL (≈ 4.41 µM) | 16 µg/mL (≈ 35.3 µM) | > 128 µg/mL | 32 µg/mL (≈ 70.6 µM) | C[C@@H](N)C(=O)N[C@H](C)[C@H]1C(=O)N2C(C(=O)O)=C(S[C@@H]3CN[C@H](C(=O)N(C)C)C3)[C@H](C)[C@H]12 [Example 59]
8 to 16 µg/mL (≈ 15.5 to 31 µM) | 1 to 2 µg/mL (≈ 1.94 to 3.87 µM) | 16 to 32 µg/mL (≈ 31 to 61.9 µM) | 8 to 16 µg/mL (≈ 15.5 to 31 µM) | > 128 µg/mL | CCS(=O)(=O)CC(=O)N[C@H](C)[C@H]1C(=O)N2C(C(=O)O)=C(S[C@@H]3CN[C@H](C(=O)N(C)C)C3)[C@H](C)[C@H]12 [Example 63]
2 µg/mL (≈ 4.18 µM) | 1 to 2 µg/mL (≈ 2.09 to 4.18 µM) | 8 µg/mL (≈ 16.7 µM) | 8 µg/mL (≈ 16.7 µM) | 64 µg/mL (≈ 134 µM) | C[C@@H](NC(=O)C(F)(F)F)[C@H]1C(=O)N2C(C(=O)O)=C(S[C@@H]3CN[C@H](C(=O)N(C)C)C3)[C@H](C)[C@H]12 [Example 64]
8 µg/mL (≈ 16.6 µM) | 2 µg/mL (≈ 4.15 µM) | 8 µg/mL (≈ 16.6 µM) | 4 to 8 µg/mL (≈ 8.31 to 16.6 µM) | > 128 µg/mL | C[C@@H](NC(=O)C(=O)N(C)C)[C@H]1C(=O)N2C(C(=O)O)=C(S[C@@H]3CN[C@H](C(=O)N(C)C)C3)[C@H](C)[C@H]12 [Example 66]
4 µg/mL (≈ 8.05 µM) | 8 µg/mL (≈ 16.1 µM) | > 128 µg/mL | > 128 µg/mL | > 128 µg/mL | CC(C)C[C@H](O)C(=O)N[C@H](C)[C@H]1C(=O)N2C(C(=O)O)=C(S[C@@H]3CN[C@H](C(=O)N(C)C)C3)[C@H](C)[C@H]12 [Example 67]
32 µg/mL (≈ 70.6 µM) | 4 µg/mL (≈ 8.82 µM) | 8 µg/mL (≈ 17.6 µM) | > 128 µg/mL | 32 to 64 µg/mL (≈ 70.6 to 141 µM) | C[C@H](N)C(=O)N[C@H](C)[C@H]1C(=O)N2C(C(=O)O)=C(S[C@@H]3CN[C@H](C(=O)N(C)C)C3)[C@H](C)[C@H]12 [Example 68]
8 µg/mL (≈ 15.1 µM) | 16 µg/mL (≈ 30.2 µM) | 128 µg/mL (≈ 242 µM) | 64 µg/mL (≈ 121 µM) | > 128 µg/mL | C[C@@H](NC(=O)[C@@H](N)Cc1ccccc1)[C@H]1C(=O)N2C(C(=O)O)=C(S[C@@H]3CN[C@H](C(=O)N(C)C)C3)[C@H](C)[C@H]12 [Example 71]
4 µg/mL (≈ 8.05 µM) | 1 to 2 µg/mL (≈ 2.01 to 4.03 µM) | 4 µg/mL (≈ 8.05 µM) | 8 µg/mL (≈ 16.1 µM) | 4 to 16 µg/mL (≈ 8.05 to 32.2 µM) | CC(C)OC(=O)C(=O)N[C@H](C)[C@H]1C(=O)N2C(C(=O)O)=C(S[C@@H]3CN[C@H](C(=O)N(C)C)C3)[C@H](C)[C@H]12 [Example 73]
8 to 16 µg/mL (≈ 17.1 to 34.1 µM) | 1 to 2 µg/mL (≈ 2.13 to 4.27 µM) | 1 to 2 µg/mL (≈ 2.13 to 4.27 µM) | 4 µg/mL (≈ 8.54 µM) | 8 µg/mL (≈ 17.1 µM) | COC(=O)C(=O)N[C@H](C)[C@H]1C(=O)N2C(C(=O)O)=C(S[C@@H]3CN[C@H](C(=O)N(C)C)C3)[C@H](C)[C@H]12 [Example 74]
